From ChEMBL document CHEMBL5038635, “Discovery of Salidroside-Derivated Glycoside Analogues as Novel Angiogenesis Agents to Treat Diabetic Hind Limb Ischemia” (J Med Chem, 2022)
≈ marks a conversion by molar mass, not a printed value. Values belong to the compound of their own block, whether it stands above or below them. Calls of active or inactive are those of the source. The rule behind the calls is not given here.

Legend:
[1] = Permeability coefficient across apical to basolateral side in human Caco-2 cells by HPLC-UV analysis
[2] = target: Hypoxia-inducible factor 1-alpha (Mus musculus) (UniProt Q61221); assay: Inhibition of HIF-1alpha in mouse C2C12 cells transfected with HRE-driven firefly luciferase gene assessed as fold change in transcriptional activity at 300 uM pretreated with compound for 12 hr followed by hypoxic condition for 24 hrs by dual luciferase reporter gene assay; assay type: cell-based; settings: time 36.0 hrs
Sequence of Hypoxia-inducible factor 1-alpha (Mus musculus) (Q61221 whole entry): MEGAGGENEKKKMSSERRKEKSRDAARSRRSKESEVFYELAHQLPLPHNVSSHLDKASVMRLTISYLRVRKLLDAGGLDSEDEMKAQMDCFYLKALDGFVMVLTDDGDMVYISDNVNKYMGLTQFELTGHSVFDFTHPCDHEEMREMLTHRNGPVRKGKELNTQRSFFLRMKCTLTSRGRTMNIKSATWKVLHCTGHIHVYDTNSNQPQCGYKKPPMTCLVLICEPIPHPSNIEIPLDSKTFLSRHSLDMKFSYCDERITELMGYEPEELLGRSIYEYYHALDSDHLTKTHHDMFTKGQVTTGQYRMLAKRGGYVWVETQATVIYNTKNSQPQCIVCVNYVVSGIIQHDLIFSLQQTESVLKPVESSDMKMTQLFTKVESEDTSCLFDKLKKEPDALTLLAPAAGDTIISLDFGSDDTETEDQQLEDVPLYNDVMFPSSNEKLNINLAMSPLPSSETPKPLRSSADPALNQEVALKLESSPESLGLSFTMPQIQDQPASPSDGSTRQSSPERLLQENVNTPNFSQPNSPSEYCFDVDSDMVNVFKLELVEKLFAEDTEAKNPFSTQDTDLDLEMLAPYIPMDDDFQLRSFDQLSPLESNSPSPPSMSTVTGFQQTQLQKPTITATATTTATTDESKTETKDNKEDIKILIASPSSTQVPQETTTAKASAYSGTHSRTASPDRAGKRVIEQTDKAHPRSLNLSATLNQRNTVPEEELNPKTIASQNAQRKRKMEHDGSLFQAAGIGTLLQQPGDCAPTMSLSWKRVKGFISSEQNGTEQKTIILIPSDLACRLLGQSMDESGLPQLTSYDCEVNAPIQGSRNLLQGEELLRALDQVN

[3] = target: Hypoxia-inducible factor 1-alpha (Mus musculus) (UniProt Q61221); assay: Inhibition of HIF-1alpha in mouse C2C12 cells transfected with PDGF-B driven firefly luciferase gene assessed as transcriptional activity pretreated with compound for 12 hr followed by hypoxic condition for 24 hrs by dual luciferase reporter gene assay; assay type: cell-based; settings: time 36.0 hrs
[4] = Dissociation constant, pKa of compound by UV-visible spectrometric method; assay type: physicochemical
[5] = Water solubility of the compound by HPLC analysis
[6] = Efflux ratio of Apparent permeability across basolateral to apical side over apical to basolateral side in human Caco-2 cells
[7] = Permeability coefficient across basolateral to apical side in human Caco-2 cells by HPLC-UV analysis
[8] = Octanol/Water partition coefficient, log P of the compound by HPLC-UV analysis
C2C12 [9] = assay: Induction of proliferation of hyperglycemia-induced mouse C2C12 cell apoptosis assessed as decrease in Annexin V/PI-positive cells at 30 uM pretreated with compound under hyperglycemia condition for 12 hr followed by hypoxia for 24 hrs; assay type: functional, cell-based; settings: time 36.0 hrs
C2C12 [10] = assay: Angiogenic activity in mouse C2C12 cells assessed as reversal of hyperglycemia-induced reduction in total cell number at 30 uM measured after 24 hrs by EdU-incorporation assay; assay type: functional, cell-based
C2C12 [11] = assay: Angiogenic activity in mouse C2C12 cells assessed as reversal of hyperglycemia-induced reduction in total cell number at 300 uM measured after 36 hrs by EdU-incorporation assay; assay type: functional, cell-based
C2C12 [12] = assay: Angiogenic activity in mouse C2C12 cells assessed as accumulation HIF-1alpha protein expression at 300 uM by Western blot analysis; assay type: functional, cell-based
C2C12 [13] = assay: Angiogenic activity in mouse C2C12 cells assessed as reversal of hyperglycemia-induced reduction in total cell number at 15 uM measured after 36 hrs by EdU-incorporation assay; assay type: functional, cell-based
C2C12 [14] = assay: Apoptotic rate in hyperglycemia-treated mouse C2C12 cells assessed as early apoptotic cells at 15 uM by AnnexinV-FITC/PI staining based flow cytometric analysis (reference value: 7.10 %); assay type: functional
C2C12 [15] = assay: Apoptotic rate in hyperglycemia-treated mouse C2C12 cells assessed as late apoptotic cells at 15 uM by AnnexinV-FITC/PI staining based flow cytometric analysis (reference value: 10.44 %); assay type: functional
C2C12 [16] = assay: Angiogenic activity in mouse C2C12 cells assessed as accumulation VEGF-A protein expression at 300 uM by Western blot analysis; assay type: functional, cell-based
C2C12 [17] = assay: Induction of proliferation of hyperglycemia-induced mouse C2C12 cell death assessed as increase in number of EdU-positive cells at 7.5 to 300 uM pretreated with compound under hyperglycemia condition for 12 hr followed by hypoxia for 24 hrs; assay type: functional, cell-based; settings: dose 7.5-300 µM, time 36.0 hrs
C2C12 [18] = assay: Angiogenic activity in mouse C2C12 cells assessed as accumulation ANG1 protein expression at 300 uM by Western blot analysis; assay type: functional, cell-based
C2C12 [19] = assay: Apoptotic rate in hyperglycemia-treated mouse C2C12 cells assessed as early apoptotic cells at 30 uM by AnnexinV-FITC/PI staining based flow cytometric analysis (reference value: 7.10 %); assay type: functional
C2C12 [20] = assay: Apoptotic rate in hyperglycemia-treated mouse C2C12 cells assessed as viable cells at 15 uM by AnnexinV-FITC/PI staining based flow cytometric analysis (reference value: 81.90 %); assay type: functional; settings: read-out: Activity
C2C12 [21] = assay: Apoptotic rate in hyperglycemia-treated mouse C2C12 cells assessed as necrotic cells at 30 uM by AnnexinV-FITC/PI staining based flow cytometric analysis (reference value: 0.56 %); assay type: functional
C2C12 [22] = assay: Angiogenic activity in mouse C2C12 cells assessed as reversal of hyperglycemia-induced reduction in total cell number at 7.5 uM measured after 36 hrs by EdU-incorporation assay; assay type: functional, cell-based
C2C12 [23] = assay: Apoptotic rate in hyperglycemia-treated mouse C2C12 cells assessed as necrotic cells at 15 uM by AnnexinV-FITC/PI staining based flow cytometric analysis (reference value: 0.56 %); assay type: functional
C2C12 [24] = assay: Induction of proliferation of hyperglycemia-induced mouse C2C12 cell apoptosis assessed as decrease in Annexin V/PI-positive cells at 15 uM pretreated with compound under hyperglycemia condition for 12 hr followed by hypoxia for 24 hrs; assay type: functional, cell-based; settings: time 36.0 hrs
C2C12 [25] = assay: Induction of proliferation of hyperglycemia-induced mouse C2C12 cell death assessed as increase in number of EdU-positive cells at 15 uM pretreated with compound under hyperglycemia condition for 12 hr followed by hypoxia for 24 hrs; assay type: functional, cell-based; settings: time 36.0 hrs
C2C12 [26] = assay: Apoptotic rate in hyperglycemia-treated mouse C2C12 cells assessed as late apoptotic cells at 30 uM by AnnexinV-FITC/PI staining based flow cytometric analysis (reference value: 10.44 %); assay type: functional
C2C12 [27] = assay: Angiogenic activity in mouse C2C12 cells assessed as reversal of hyperglycemia-induced reduction in total cell number at 100 uM measured after 36 hrs by EdU-incorporation assay; assay type: functional, cell-based
C2C12 [28] = assay: Angiogenic activity in mouse C2C12 cells assessed as accumulation PDGF-BB protein expression at 300 uM by Western blot analysis; assay type: functional, cell-based
C2C12 [29] = assay: Apoptotic rate in hyperglycemia-treated mouse C2C12 cells assessed as viable cells at 30 uM by AnnexinV-FITC/PI staining based flow cytometric analysis (reference value: 81.90 %); assay type: functional; settings: read-out: Activity

Compound: O=S1(=O)OC(c2ccc(O)cc2)(c2ccc(O)cc2)c2ccccc21 [PHENOLSULFONPHTHALEIN]
- Papp A→B [1]: 0.35 ×10⁻⁶ cm/s

Compound: CC(C)(CO[C@@H]1O[C@H](CO)[C@@H](O)[C@H](O)[C@H]1O)c1ccc(O)cc1
- fold change (FC) [2]: 1.73

Compound: OC[C@H]1O[C@@H](CCCc2ccc(O)cc2)[C@H](O)[C@@H](O)[C@@H]1O
- inhibition [3]: inactive

Compound: OC[C@H]1O[C@@H](OCCc2ccccc2)[C@H](O)[C@@H](O)[C@@H]1O
- inhibition [3]: Active
- fold change (FC) [2]: 1.76

Compound: OC[C@H]1O[C@@H](Oc2ccc(Cc3ccc(O)cc3)cc2)[C@H](O)[C@@H](O)[C@@H]1O
- pKa [4]: 10.4
- solubility [5]: 1640 µg/mL (≈ 4.53 mM)
- efflux ratio [6]: 1.09
- Papp A→B [1]: 1.3 ×10⁻⁶ cm/s
- Papp B→A [7]: 1.42 ×10⁻⁶ cm/s
- logP [8]: 0.076

Compound: COc1ccc(-c2cccc(O[C@@H]3O[C@H](CO)[C@@H](O)[C@H](O)[C@H]3O)c2)cc1
- inhibition [3]: Active
- fold change (FC) [2]: 2.5

Compound: OC[C@H]1O[C@@H](OCC2(c3ccc(O)cc3)CCC2)[C@H](O)[C@@H](O)[C@@H]1O
- inhibition [3]: Active
- fold change (FC) [2]: 1.63

Compound: COc1ccc(CCO[C@@H]2O[C@H](CO)[C@@H](O)[C@H](O)[C@H]2O)cc1
- inhibition [3]: Active
- fold change (FC) [2]: 1.69

Compound: OC[C@H]1O[C@@H](OCCc2ccc(F)cc2)[C@H](O)[C@@H](O)[C@@H]1O
- inhibition [3]: Active
- fold change (FC) [2]: 1.47

Compound: OC[C@H]1O[C@@H](OCCCc2ccc(O)cc2)[C@H](O)[C@@H](O)[C@@H]1O
- fold change (FC) [2]: 1.52

Compound: COc1ccc(C(C)(C)CO[C@@H]2O[C@H](CO)[C@@H](O)[C@H](O)[C@H]2O)cc1
- inhibition [3]: Active

The next lines start with results.

- pKa [4]: > 14
- solubility [5]: 6710 µg/mL (≈ 17.8 mM)
- efflux ratio [6]: 1.04
- Papp A→B [1]: 1.75 ×10⁻⁶ cm/s
- fold change (FC) [2]: 0.78
- Papp B→A [7]: 1.82 ×10⁻⁶ cm/s
- logP [8]: 1.07
Compound: COc1ccc(Cc2ccccc2O[C@@H]2O[C@H](CO)[C@@H](O)[C@H](O)[C@H]2O)cc1 [SERGLIFLOZIN A]

- inhibition [3]: Active
- fold change (FC) [2]: 2.5
Compound: COc1ccc(-c2ccc(O[C@@H]3O[C@H](CO)[C@@H](O)[C@H](O)[C@H]3O)cc2)cc1

- pKa [4]: > 14
- solubility [5]: 1320 µg/mL (≈ 3.51 mM)
- efflux ratio [6]: 1.06
- Papp A→B [1]: 1.68 ×10⁻⁶ cm/s
- inhibition [3]: Active
- fold change (FC) [2]: 2.5
- Papp B→A [7]: 1.78 ×10⁻⁶ cm/s
- logP [8]: 1.02
Compound: COc1ccc(Cc2ccc(O[C@@H]3O[C@H](CO)[C@@H](O)[C@H](O)[C@H]3O)cc2)cc1
- Activity (C2C12 [9]): inactive
- Activity (C2C12 [10]): Active
- Activity (C2C12 [11]): Active
- inhibition (C2C12 [12]): Active
- Activity (C2C12 [13]): Active
- Activity (C2C12 [14]): 5.4%
- Activity (C2C12 [15]): 10.59%
- inhibition (C2C12 [16]): Active
- Activity (C2C12 [17]): inactive
- inhibition (C2C12 [18]): Active
- Activity (C2C12 [19]): 3.21%
- viability at 15 µM (C2C12 [20]): 83.5%
- Activity (C2C12 [21]): 0.41%
- Activity (C2C12 [22]): inactive
- Activity (C2C12 [23]): 0.49%
- Activity (C2C12 [24]): inactive
- Activity (C2C12 [25]): Active
- Activity (C2C12 [26]): 7.14%
- Activity (C2C12 [27]): Active
- inhibition (C2C12 [28]): Active
- viability at 30 µM (C2C12 [29]): 89.2%

- efflux ratio [6]: 11.1
- Papp A→B [1]: 1.33 ×10⁻⁶ cm/s
- Papp B→A [7]: 14.7 ×10⁻⁶ cm/s
Compound: C[C@H]1O[C@@H](O[C@H]2[C@@H](O)C[C@H](O[C@H]3[C@@H](O)C[C@H](O[C@H]4CC[C@@]5(C)[C@H](CC[C@@H]6[C@@H]5C[C@@H](O)[C@]5(C)[C@@H](C7=CC(=O)OC7)CC[C@]65O)C4)O[C@@H]3C)O[C@@H]2C)C[C@H](O)[C@@H]1O [DIGOXIN]

- HIF-1alpha inhibition call (active/inactive) [2]: Active
Compound: OC[C@H]1O[C@@H](Oc2ccc(Cc3ccc(O)c(O)c3)cc2)[C@H](O)[C@@H](O)[C@@H]1O
